Data set [1] has as its system influenza nuclear protein (NP). Set-up: species or system mice. As to conditions: mouse, in vivo.
The nature of data set [2]: Tolerability of i.m. injection in the mouse model. It is filed as in vivo. The conditions noted are these: highest dose tested: 100 μg VR4700 plasmid+48 μg GAP-DMORIE+60 μg DPyPE per mouse. How it is done: All cytofectin/co-lipid formulations used in this study remained uniformly opaque for several hours after preparation at room temperature without any visible aggregation. Formulations were injected 20 min-1.5 hours after complexation.

Another data set deals with hemagglutinin (HA). Also noted: species or system humans. As to conditions: in vivo.

The values below come from patent publication US8415317B2, “Adjuvant compositions and methods for enhancing immune responses to polynucleotide-based vaccines” (priority 1999, dated 2013).

“Also recorded” adds a separate entry of the source.

For the molecule `CCCCCCCCCCCCCCOCC(C[N+](C)(C)CCO)OCCCCCCCCCCCCCC.[Br-]` (racemic) [DMRIE, (±)-N-(2-hydroxyethyl)-N,N-dimethyl-2,3-bis(tetradecyloxy)-1-propanaminium bromide], the “level of antibody stimulation (GMT relative to that for pDNA alone)” value (shortened to “level … (GMT relative to that for pDNA alone)”) in data set [1] is recorded as “equally active”.
Turning to `CCCC/C=C\CCCCCCCCOCC(C[N+](C)(C)CCCN)OCCCCCCCC/C=C\CCCC.[Br-]` (racemic) [GAP-DMORIE, (±)-N-(3-aminopropyl)-N,N-dimethyl-2,3-bis(syn-9-tetradeceneyloxy)-1-propanaminium bromide], in data set [1], the “humoral immune response, level of antibody titers from pDNA immunization” value is reported as “synergistic effect to further enhance the humoral immune response” and the “level … (GMT relative to that for pDNA alone)” value was “markedly enhances antibody responses; also recorded: more active than either DMORIE or GAP-DMRIE”. Further, the “discomfort or adverse reactions when injected into mouse muscle” value in data set [2] is listed as “did not appear to produce discomfort or result in any adverse reactions”. In addition, the “immune responses of human subjects, HA GMT antibody titer” value in the data set on hemagglutinin (HA) is “induced”.
As for `CCCCCCCCCCCCCCOCC(C[N+](C)(C)CCCN)OCCCCCCCCCCCCCC.[Br-]` (racemic) [GAP-DMRIE, (±)-N-(3-aminopropyl)-N,N-dimethyl-2,3-(bis-tetradecyloxy)-1-propanaminium bromide], the “level … (GMT relative to that for pDNA alone)” value in data set [1] is “no apparent advantage”.
Still for that read-out and setting: then `CCCCCCCC/C=C\CCCCCCCCOCC(C[N+](C)(C)CCNC(=O)C(CCCNCCCN)NCCCN)OCCCCCCCC/C=C\CCCCCCCC.Cl.Cl.Cl.Cl.[Cl-]` (stereo not shown) [DOSPA, 2,3-dioleyloxy-N-(2-(sperminecarboxamido)ethyl)-N,N-dimethyl-1-propanaminium pentahydrochloride], with “less active than DORIE; also recorded: dramatically decreases the level of antibody titers relative to those seen for pDNA alone”.
